Laboratory results: US12269859B2, “Synthetic immune receptors and methods of use thereof” (Angeles Therapeutics, Inc., priority 2016, dated 2025)

Tested on: target antigen-expressing cell line
Test: Jurkat NFAT-GFP assay, coculture with target cell lines expressing the respective target antigen (summary Table 10A)
Assay type: cell-based, human
Design: key: The signs +/−, +, 2+ etc. after the name of the cell lines indicate the relative degree of positivity on the Jurkat-NFAT-GFP assay as measured by the % GFP positive cells; +: relative degree of positivity on the Jurkat-NFAT-GFP assay as measured by the % GFP positive cells; 2+: relative degree of positivity on the Jurkat-NFAT-GFP assay as measured by the % GFP positive cells
Settings: relative % GFP positive cells; for NFAT-GFP ASSAY Positive Cell lines: NALM6: SIR-expressing Jurkat-NFAT-GFP cells cocultured with NALM6
Procedure: (B) Induction of NFAT promoter driven GFP expression. The control vector- and SIR-expressing Jurkat-NFAT-GFP cocultured for 4-24 hours with the target antigen-expressing cell line (described above) and their ability to bind to the target antigen is assayed by measuring induction of GFP expression using Flow Cytometry. Cellular supernatant is collected and assayed for the induction of cytokines (e.g., IL2).
Jurkat NFAT-GFP Assay For Synthetic Immune Receptors. The Jurkat-NFAT-GFP cells are engineered in such a way that the IL-2 promoter, which carries NFAT binding sites, is cloned upstream of the GFP gene. These cells have been used to study signaling via TCR and CAR. The different SIRs were stably expressed in Jurkat NFAT-GFP cells by lentiviral mediated gene transfer, followed by selection with puromycin. The SIR-expressing Jurkat-NFAT-GFP cells were cocultured with the target cells at E:T ratio of approximately 1:2 for approximately 4 hours to 18 hours. When the interaction between SIRs and their target antigen results in activation of the NFAT pathway, GFP expression is induced.
Induction of GFP expression by coculturing of Jurkat-NFAT-GFP cells expressing different SIR constructs and the different target cells was studied essentially as described previously (Wu, Roybal, Puchner, Onuffer, & Lim, 2015). GFP expression was monitored by FACS analysis. A few representative examples of this assay are shown in the FIG. 13A-B. In panel A, control Jurkat-NFAT-GFP cells or those expressing SIRs targeting CD19 (clone ID 051716-I08), MPL (Clone ID: 040716-A07) and BCMA (Clone ID: 011116-A07) were incubated with RAJI (top), HEL (middle) or U266 (bottom) cells, respectively. […] In panel B, Jurkat cells expressing SIR targeting CDH6 (Clone ID: 051716-J05), CD276 (Clone ID: 050516-Q06) and Her2/neu (Clone ID: 050516-I03) were incubated with SKOV3 (top) and […] (middle and bottom) cells, respectively. […] The Jurkat-NFAT-GFP cells were engineered to express different SIRs targeting other antigens and the experiment repeated upon coculture with the target cells expressing their respective target antigen. The Jurkat-NFAT-GFP (parental) cells were used as control. The names of different SIRs, their SEQ ID NOs, component antigen binding domains and TCR chains can be determined by reference to Tables 7A-7H. A SIR is considered positive in the assay in case the SIR expressing Jurkat-NFAT-GFP cells show greater % GFP positive cells when cultured with the target cell line as compared to parental Jurkat-NFAT-GFP cells. […] The signs +/−, +, 2+ etc. after the name of the cell lines indicate the relative degree of positivity on the Jurkat-NFAT-GFP assay as measured by the % GFP positive cells after culture of the SIR expressing Jurkat-NFAT-GFP cells with that cell line. […] In addition, great diversity of response against the same target cell line is observed with Jurkat cells expressing SIRs containing different antigen binding domains targeting the same antigen (e.g., SIRs having antigen binding domains derived form different CD19 antibodies) even when the SIRs share the same TCR chains and linkers. Finally, Jurkat cells expressing SIRs targeting different antigens (e.g. CD19 vs CD20) show a diversitiy of response when exposed to the same target cell line. Thus, a diverse immune response can be generated against a single target cell by combining SIRs with different TCR chains, linkers, antigen binding domains and target specificity. Table 10A also summarizes the results of GLuc based T cell cytotoxicity assay observed with different SIRs when exposed to their target cell lines. […]

## CD8SP-CD19Bu12-vL-V5-[TCRb-S57C-opt1]-F-P2A-SP-CD19Bu12-vH-Myc-[TCRa-T48C-opt1]-F-F2A-PAC [SEQ ID NO:1021]
  NFAT-GFP ASSAY Positive Cell lines: NALM6: (2+)

## CD8SP-FMC63-vL-V5-[TCRb-S57C-opt1]-F-P2A-SP-FMC63-vH-Myc-[TCRa-T48C-opt1]-F-F2A-PAC [SEQ ID NO:900]
  NFAT-GFP ASSAY Positive Cell lines: NALM6: RAJI(2+), NALM6(2+)
SIR-expressing Jurkat-NFAT-GFP cells cocultured with RAJI
  NFAT-GFP ASSAY Positive Cell lines: RAJI: RAJI(2+), NALM6(2+)
